Reference: patent publication US20160000782A1, “PHARMACEUTICAL COMPOSITION CONTAINING ANTIBACTERIAL AGENT” (priority 2013, published 2016)

System: Archaea (extreme halophile) infection causing dementia
Test: Treatment of patients with progressive dementia of unknown etiology (clinical course, MRI)
Format: in vivo, human
Description: The present inventors conducted studies by targeting 4 subjects with progressive dementia of unknown etiology at the Kagoshima University Medical and Dental Hospital. This study took place after the informed consent of the patients involved had been obtained. Also, this study was carried out with the approval of the ethical review committee of Kagoshima University.
Dementia was evaluated using the Revised Hasegawa Dementia Scale (HDS-R), which is […] that used for the mini-mental status examination (MMSE).

## CO/N=C(\C(=O)N[C@@H]1C(=O)N2C(C(=O)O)=C(CSc3nc(=O)c(=O)[nH]n3C)CS[C@H]12)c1csc(N)n1 [ceftriaxone]
Patient 1, ceftriaxone and methylprednisolone administered together, 2 weeks after the initial administration
  symptoms: improved slightly
Patient 1, ceftriaxone and methylprednisolone administered together, later course, enlarged lesion in base of temporal lobe on brain MRI
  symptoms thereafter: tended to progress
Patient 3, ceftriaxone 4 g/day intravenous for 2 weeks
  improvement: no improvement was observed
